Species on record: Rattus norvegicus
Test: Open TG-GATES - Regimen: Single
Assay type: toxicity, organism-based, Sprague-Dawley
Set-up: regimen Single, gender Male, age 6 weeks
Details: in vivo, iv, route intravenous injection; for Bas / Eos / Hb / Ht / Lym / MCH / MCHC / MCV / Mono / Neu / Plat / RBC / Ret: tissue Blood; for KIDNEY_L / KIDNEY_R / KIDNEY_TOTAL: tissue Kidney; for ALT / AST / CRE / DBIL / GLC / K / LDH / Na / PL / RALB / TBIL / TC / TP / gamma-GTP: tissue Plasma
[1] = 0 mg/kg, 3 h, dose level Control
[2] = 0 mg/kg, 6 h, dose level Control
[3] = 0 mg/kg, 9 h, dose level Control
[4] = 0 mg/kg, 24 h, dose level Control

## CC(C)C[C@H](NC(=O)[C@H](Cc1ccccc1)NC(=O)c1cnccn1)B(O)O [BORTEZOMIB]
[1]
  TERMINAL_BW: 223 g
  Bas: 0%
  Eos: 0.8%
  Hb: 13.9 g/dL
  Ht: 39.5%
  Lym: 81.4%
  MCH: 22.9 pg
  MCHC: 35.2%
  MCV: 65.1 fL
  Mono: 2.6%
  Neu: 14.8%
  Plat: 124.1 x10_4/uL
  RBC: 607 x10_4/ul
  Ret: 9.3%
  KIDNEY_L: 0.9 g
  KIDNEY_R: 0.9 g
  KIDNEY_TOTAL: 1.9 g
  ALT: 38.6 IU/L
  AST: 70.4 IU/L
  CRE: 0.2 mg/dL
  DBIL: 0 mg/dL
  GLC: 191.2 mg/dL
  K: 3.9 meq/L
  LDH: 175.8 IU/L
  Na: 142.3 meq/L
  PL: 138.6 mg/dL
  RALB: 4.1 g/dL
  TBIL: 0.006 mg/dL
  TC: 74.6 mg/dL
  TP: 5.6 g/dL
  gamma-GTP: 0.7 IU/L
[2]
  TERMINAL_BW: 220.7 g
  Bas: 0%
  Eos: 0.4%
  Hb: 13.7 g/dL
  Ht: 38.8%
  Lym: 77.6%
  MCH: 22.1 pg
  MCHC: 35.4%
  MCV: 62.5 fL
  Mono: 2.8%
  Neu: 18.4%
  Plat: 117.1 x10_4/uL
  RBC: 622.4 x10_4/ul
  Ret: 8.7%
  KIDNEY_L: 1 g
  KIDNEY_R: 1 g
  KIDNEY_TOTAL: 2 g
  ALT: 37 IU/L
  AST: 78.8 IU/L
  CRE: 0.2 mg/dL
  DBIL: 0 mg/dL
  GLC: 176.6 mg/dL
  K: 4.4 meq/L
  LDH: 219.2 IU/L
  Na: 141.6 meq/L
  PL: 141.4 mg/dL
  RALB: 4 g/dL
  TBIL: 0.014 mg/dL
  TC: 75.4 mg/dL
  TP: 5.6 g/dL
  gamma-GTP: 0.8 IU/L
[3]
  TERMINAL_BW: 222.6 g
  Bas: 0%
  Eos: 1%
  Hb: 14 g/dL
  Ht: 40.5%
  Lym: 71%
  MCH: 22.2 pg
  MCHC: 34.5%
  MCV: 64.3 fL
  Mono: 3.4%
  Neu: 24.4%
  Plat: 108.5 x10_4/uL
  RBC: 630.2 x10_4/ul
  Ret: 9.3%
  KIDNEY_L: 1 g
  KIDNEY_R: 1 g
  KIDNEY_TOTAL: 1.9 g
  ALT: 39.8 IU/L
  AST: 78 IU/L
  CRE: 0.2 mg/dL
  DBIL: 0 mg/dL
  GLC: 179.4 mg/dL
  K: 3.9 meq/L
  LDH: 187.2 IU/L
  Na: 141.5 meq/L
  PL: 139 mg/dL
  RALB: 3.9 g/dL
  TBIL: 0.022 mg/dL
  TC: 78.6 mg/dL
  TP: 5.5 g/dL
  gamma-GTP: 0.8 IU/L
[4]
  TERMINAL_BW: 236.7 g
  Bas: 0%
  Eos: 0.6%
  Hb: 13.8 g/dL
  Ht: 38.2%
  Lym: 81.2%
  MCH: 22.9 pg
  MCHC: 36.1%
  MCV: 63.5 fL
  Mono: 3%
  Neu: 14.6%
  Plat: 113.7 x10_4/uL
  RBC: 603 x10_4/ul
  Ret: 8%
  KIDNEY_L: 1.1 g
  KIDNEY_R: 1 g
  KIDNEY_TOTAL: 2.1 g
  ALT: 42 IU/L
  AST: 74.4 IU/L
  CRE: 0.2 mg/dL
  DBIL: 0 mg/dL
  GLC: 182.4 mg/dL
  K: 4.2 meq/L
  LDH: 190.4 IU/L
  Na: 140.8 meq/L
  PL: 146.4 mg/dL
  RALB: 4 g/dL
  TBIL: 0.002 mg/dL
  TC: 74.2 mg/dL
  TP: 5.7 g/dL
  gamma-GTP: 1 IU/L
1 mg/kg, 3 h, dose level High
  TERMINAL_BW: 228.6 g
  Bas: 0%
  Eos: 0.6%
  Hb: 14.6 g/dL
  Ht: 41.1%
  Lym: 73%
  MCH: 22.6 pg
  MCHC: 35.4%
  MCV: 63.7 fL
  Mono: 2.2%
  Neu: 23.8%
  Plat: 121.1 x10_4/uL
  RBC: 645.8 x10_4/ul
  Ret: 8.6%
  KIDNEY_L: 0.9 g
  KIDNEY_R: 1 g
  KIDNEY_TOTAL: 1.9 g
  ALT: 60 IU/L
  AST: 123.6 IU/L
  CRE: 0.2 mg/dL
  DBIL: 0.008 mg/dL
  GLC: 155 mg/dL
  K: 4.2 meq/L
  LDH: 295.6 IU/L
  Na: 141.3 meq/L
  PL: 99 mg/dL
  RALB: 3.7 g/dL
  TBIL: 0.012 mg/dL
  TC: 63.6 mg/dL
  TP: 5 g/dL
  gamma-GTP: 0.8 IU/L
1 mg/kg, 6 h, dose level High
  TERMINAL_BW: 226.8 g
  Bas: 0%
  Eos: 0.2%
  Hb: 14.2 g/dL
  Ht: 39.8%
  Lym: 61%
  MCH: 22.8 pg
  MCHC: 35.7%
  MCV: 63.8 fL
  Mono: 2.2%
  Neu: 35.6%
  Plat: 113.4 x10_4/uL
  RBC: 623.4 x10_4/ul
  Ret: 8.3%
  KIDNEY_L: 1 g
  KIDNEY_R: 1 g
  KIDNEY_TOTAL: 1.9 g
  ALT: 116.4 IU/L
  AST: 191.4 IU/L
  CRE: 0.2 mg/dL
  DBIL: 0.006 mg/dL
  GLC: 148.2 mg/dL
  K: 4.4 meq/L
  LDH: 314.4 IU/L
  Na: 141.2 meq/L
  PL: 78.4 mg/dL
  RALB: 3.7 g/dL
  TBIL: 0.008 mg/dL
  TC: 44.6 mg/dL
  TP: 4.9 g/dL
  gamma-GTP: 0.6 IU/L
1 mg/kg, 9 h, dose level High
  TERMINAL_BW: 222.8 g
  Bas: 0%
  Eos: 0.8%
  Hb: 14.3 g/dL
  Ht: 40.6%
  Lym: 49%
  MCH: 23 pg
  MCHC: 35.2%
  MCV: 65.2 fL
  Mono: 2%
  Neu: 48.2%
  RBC: 622 x10_4/ul
  Ret: 8.2%
  KIDNEY_L: 1 g
  KIDNEY_R: 1 g
  KIDNEY_TOTAL: 2 g
  ALT: 122.2 IU/L
  AST: 182 IU/L
  CRE: 0.2 mg/dL
  DBIL: 0.014 mg/dL
  GLC: 150.4 mg/dL
  K: 4 meq/L
  LDH: 262 IU/L
  Na: 140.9 meq/L
  PL: 74 mg/dL
  RALB: 3.6 g/dL
  TBIL: 0.02 mg/dL
  TC: 36.2 mg/dL
  TP: 4.7 g/dL
  gamma-GTP: 0.8 IU/L
1 mg/kg, 24 h, dose level High
  TERMINAL_BW: 215.1 g
  Bas: 0%
  Eos: 0%
  Hb: 12.6 g/dL
  Ht: 35.2%
  Lym: 42%
  MCH: 23.4 pg
  MCHC: 35.8%
  MCV: 65.5 fL
  Mono: 2.7%
  Neu: 54%
  Plat: 89 x10_4/uL
  RBC: 538.3 x10_4/ul
  Ret: 5.4%
  KIDNEY_L: 1 g
  KIDNEY_R: 1 g
  KIDNEY_TOTAL: 2 g
  ALT: 163 IU/L
  AST: 368.7 IU/L
  CRE: 0.2 mg/dL
  DBIL: 0.5 mg/dL
  GLC: 134.7 mg/dL
  K: 4 meq/L
  LDH: 922.3 IU/L
  Na: 135.5 meq/L
  PL: 100.3 mg/dL
  RALB: 2.7 g/dL
  TBIL: 0.5 mg/dL
  TC: 41 mg/dL
  TP: 3.9 g/dL
  gamma-GTP: 4.3 IU/L
